In patent US6846496B1, “Treatment of osteoporosis” (Orion Corporation, priority 1999, dated 2005):
“And” between values parts separate entries of the source, which are not always exact repeats. Identical values can stand only once.

Experiment: Comparative clinical study: bone mineral density by dual-energy X-ray absorptiometry at vertebrae (L2-L4) and femoral neck
Assay type: in vivo, postmenopausal women
Conditions: 48 months; for increase in bone mineral density in the vertebrae (mean percentage change) / increase in bone mineral density in the femoral neck: all subjects; for increase in bone mineral density in the femoral neck (percentage change) / increase in bone mineral density in the vertebrae (mean change from baseline): osteopenic/osteoporotic subjects; for mean change from baseline in BMD in vertebrae: subjects with normal BMD at baseline
Source text: The subjects used in the study were 419 postmenopausal women, aged 45 to 65 years. Eligible women had to be at least 3 years postmenopausal with normal gynecological findings, an intact uterus and a body mass index of 30 or less. Major medical exclusion criteria included endometrial hyperplasia and pathological mammography findings, prior hormone-dependent malignancies, severe thyroid diseases, and other criteria typical for HRT studies. Excessive smokers and alcohol abusers were excluded. Otherwise the women were not required to change their daily diet or other lifestyle habits for the study period.
Subjects were randomly assigned to six treatment groups to receive one tablet daily containing one of the following dose combinations: 1 mg or 2 mg of estradiolvalerate (E2V) combined to 2.5 mg or 5 mg of medroxyprogestrone acetate (MPA) (Indivina®, Orion Corporation, Espoo, Finland).
Groups changing from 1 mg E2V to 2 mg E2V irrespective of the MPA (Group I and II) were pooled together. Groups receiving 1 mg of E2V throughout the study irrespective of the MPA dose (Group V and VI) were pooled together. Also groups receiving 2 mg of E2V throughout the study irrespective of the MPA dose (Group III and IV) were pooled together. Pooling was considered justified since MPA is not expected to affect the response of estrogen on bone mineral density (BMD).
The bone mineral densities at the vertebrae and the hip were measured using dual-energy X-ray absorptiometry (DPX) at baseline, 6-, 12-, 24, 36- and 48-month follow-up visits, and at premature discontinuation. The BMD from the hip was measured by three separate measurements at the femur neck, Ward's triangle, major trochanter and BMD from the vertebrae was measured at L2-L4. In addition, the area and bone mineral content (BMC) of vertebrae L2-L4 were determined.
Results were further analysed to compare the effect varying dosages on BMD in groups that had either normal, osteopenic or osteoporotic BMD value at baseline. Subjects were classified as osteopenic if the BMD was 0.90 to 1.08 g/cm^2 in vertebrae (L2-L4) and 0.68 to 0.86 g/cm^2 in femoral neck (corresponds to T score between −1 and −2.5 in Finnish population). BMD was regarded as normal if the values were above 1.08 g/cm^2 in vertebrae and above 0.86 g/cm^2 in femoral neck. Values below 0.90 g/cm^2 in vertebrae and below 0.68 /cm^2 in femoral neck were considered as osteoporotic.

[1] = daily 1 mg E2V first 6 months then 2 mg E2V

## CCCCC(=O)O[C@H]1CC[C@H]2[C@@H]3CCc4cc(O)ccc4[C@H]3CC[C@]12C [E2V, estradiol valerate]
Daily 1 mg E2V first 6 months then 2 mg E2V (Groups I+II pooled, with MPA)
  increase in bone mineral density in the vertebrae (mean percentage change): 8.9%
[1]
  increase in bone mineral density in the femoral neck: 4.2% and 4.3%
  increase in bone mineral density in the femoral neck (percentage change): 6.4%
  increase in bone mineral density in the vertebrae (mean change from baseline): 9.4%
  mean change from baseline in BMD in vertebrae: 8.3%
Daily 1 mg E2V whole term (Groups V+VI pooled, with MPA)
  increase in bone mineral density in the vertebrae (mean percentage change): 6.2%
Daily 1 mg E2V whole term
  increase in bone mineral density in the femoral neck: 2.9%
  increase in bone mineral density in the femoral neck (percentage change): 3.8%
  increase in bone mineral density in the vertebrae (mean change from baseline): 7.7%
  mean change from baseline in BMD in vertebrae: 4.7%
Daily 2 mg E2V whole term (Groups III+IV pooled, with MPA)
  increase in bone mineral density in the vertebrae (mean percentage change): 7.4%
Daily 2 mg E2V whole term
  increase in bone mineral density in the femoral neck: 2.9%
  increase in bone mineral density in the femoral neck (percentage change): 3.5%
  increase in bone mineral density in the vertebrae (mean change from baseline): 7.3%
  mean change from baseline in BMD in vertebrae: 7.5%
